One block for each molecule: values may come before it.
What was measured:
TF pre-mRNA [1] = experiment: TF pre-mRNA splicing in platelets of subjects receiving medication; type: in vivo, human; details: for signal-dependent TF pre-mRNA splicing: in the elderly; for impact on TF pre-mRNA splicing: subjects receiving the drug
IL-1β pre-mRNA = IL-1β pre-mRNA splicing in platelets of subjects receiving medication; type: in vivo, human; details: in young subjects
Clk1 = Clk1 (Homo sapiens, UniProt P49759); experiment: Immune complex kinase assay for Clk1 activity in platelets (SF2/ASF substrate); type: cell-based; details: stimulated platelets (fibrinogen + thrombin), pretreated; vs vehicle
Clk1, sequence (P49759 whole entry): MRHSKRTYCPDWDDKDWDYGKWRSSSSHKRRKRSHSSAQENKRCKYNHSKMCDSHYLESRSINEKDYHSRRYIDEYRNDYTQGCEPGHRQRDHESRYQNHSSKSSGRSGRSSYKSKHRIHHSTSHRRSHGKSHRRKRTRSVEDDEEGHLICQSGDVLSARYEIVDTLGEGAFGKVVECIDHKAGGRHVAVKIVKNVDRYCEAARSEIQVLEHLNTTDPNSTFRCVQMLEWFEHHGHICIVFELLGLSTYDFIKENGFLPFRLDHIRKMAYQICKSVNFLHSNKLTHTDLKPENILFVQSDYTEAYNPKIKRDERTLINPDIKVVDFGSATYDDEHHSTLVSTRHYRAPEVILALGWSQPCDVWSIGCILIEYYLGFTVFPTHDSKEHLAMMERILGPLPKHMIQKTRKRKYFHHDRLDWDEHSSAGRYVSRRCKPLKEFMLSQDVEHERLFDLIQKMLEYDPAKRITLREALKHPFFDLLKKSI

TF pre-mRNA [2] = experiment: TF pre-mRNA splicing in activated platelets (PCR); type: cell-based, human; details: platelets adherent to fibrinogen, coactivated with thrombin 2 h
Excerpt: CD34+ stem cells were isolated from human umbilical cord blood and were differentiated into megakaryocytes that produce proplatelets using methods that we have previously described^18. Leukocyte-depleted human platelets were isolated from healthy volunteers using previously described methods^18,29. For all of the platelet studies, residual leukocytes were removed from the washed preparations by CD45+ bead selection as previously described^1. […] Platelets were resuspended in M199 serum-free culture medium^1,2. Platelets were left quiescent or allowed to adhere to immobilized human fibrinogen (Calbiochem) in the presence of thrombin (0.05 U/ml; Sigma-Aldrich). Select studies were also conducted with suspended platelets that were activated with ADP, collagen, or thrombin. […] For translational inhibition, platelets were isolated and preincubated for 2 h in the presence of vehicle (water) or puromycin as previously described^2. For most of the TF pre-mRNA studies, primers that targeted sequences in exon four ([NT] ID NO: 1) and five ([NT] ID NO: 2), and thus spanned intron four, were used to determine endogenous splicing of TF pre-mRNA in platelets. Indirect in situ hybridization or direct in situ PCR was used to detect TF pre-mRNA in megakaryocytes and platelets as previously described^18. Primers that detected alternatively spliced human […] used as previously described^3. […]

TF protein = TF protein expression in platelets and platelet-derived microparticles (Western blot); type: cell-based, human; details: activated platelets, 30 min or 4 h
Excerpt: (§1) CD34+ stem cells were isolated from human umbilical cord blood and were differentiated into megakaryocytes that produce proplatelets using methods that we have previously described^18. Leukocyte-depleted human platelets were isolated from healthy volunteers using previously described methods^18,29. For all of the platelet studies, residual leukocytes were removed from the washed preparations by CD45+ bead selection as previously described^1. […] Platelets were resuspended in M199 serum-free culture medium^1,2. Platelets were left quiescent or allowed to adhere to immobilized human fibrinogen (Calbiochem) in the presence of thrombin (0.05 U/ml; Sigma-Aldrich). Select studies were also conducted with suspended platelets that were activated with ADP, collagen, or thrombin. […] For translational inhibition, platelets were isolated and preincubated for 2 h in the presence of vehicle (water) or puromycin as previously described^2.
Detailed strategies for protein detection by flow cytometry, Western blot analysis, and immunocytochemistry have been previously published^18,29. A polyclonal antibody against human TF (pAb CL 20150A; Affinity Biologicals) was used under nonreducing conditions to detect TF protein by Western analysis. […] For the in situ experiments, polymerized actin was detected with Alexa fluor 488 phalloidin (Molecular Probes). […]

activated platelets = experiment: TF-dependent procoagulant activity (Actichrome TF assay); type: cell-based, human; details: stimulated platelets (fibrinogen + thrombin)
Excerpt: as §1
TF-dependent procoagulant activity was calculated with an Actichrome TF assay (American Diagnostica) as previously described^13. […] Intact cellular membranes and microparticles were immediately placed in 25 μl of kit assay buffer and TF-dependent procoagulant activity was calculated. […]

human plasma = experiment: Plasma clot formation with membranes from activated platelets; type: cell-based; details: membranes of platelets activated 5 min or 2 h
Protocol: FIG. 5F illustrates clot formation in plasma that is incubated with membranes isolated from quiescent platelets or platelets activated with fibrinogen and thrombin for 5 min (left) or 2 h (right). The white bars represent activated platelets that were incubated with a neutralizing antibody directed against tissue factor (Anti-TF). The data in FIGS. 5D, 5E, an 5F represent the mean±SEM of six independent experiments.
FIG. 8B is a western blot analysis showing TF protein expression in platelets and platelet-derived microparticles. […] Recombinant TF was used as a positive control. FIG. 8C depicts TF-dependent procoagulant activity in freshly isolated platelets or platelets activated, as in FIG. 2B, in the presence or absence of the Clk inhibitor. […] A single asterisk (*) indicates a statistically significant difference (P<0.05) in TF-dependent procoagulant activity between freshly isolated (baseline) and activated platelets; the double asterisk (**) represents a significant difference (P<0.05) between activated platelets under untreated or treated conditions. […] The activated platelets were pretreated with either the Clk inhibitor (Clk Inh) or DMSO. The data represent the mean±SEM of five independent experiments. […]
Therefore, the affect of platelet-derived TF on plasma clotting times was determined. […]

platelets = experiment: Other platelet functional responses (immunocytochemistry); type: cell-based, human; details: fibrinogen + thrombin, 1 h
Protocol: After 1 h, the cells were prepared for immunocytochemical detection (red staining) of Clk1 (top) or β-tubulin (bottom). The green stain in each panel identifies polymerized actin.
Detailed strategies for protein detection by flow cytometry, Western blot analysis, and immunocytochemistry have been previously published^18,29. A polyclonal antibody against human TF (pAb CL 20150A; Affinity Biologicals) was used under nonreducing conditions to detect TF protein by Western analysis. Antibodies directed against TF (mAb 550252; BD Biosciences), Clk family members (Abgent), or β-tubulin (Sigma-Aldrich) were used for immunocytochemical studies. For the in situ experiments, polymerized actin was detected with Alexa fluor 488 phalloidin (Molecular Probes). Specificity was confirmed by parallel studies with nonimmune IgG or deletion of the primary antibody. Detailed strategies for protein detection by Western analysis and immunocytochemistry have been previously published^1,2. Flow cytometric analysis of surface-expressed CD14, CD45, and CD162 (PSGL-1) was performed on washed platelet preparations before and after CD45 depletion, on CD45 positively selected cells, and on purified monocytes (FIG. 1).

mClk3 = mClk3 (Mus musculus, UniProt O35492); details: cited from earlier work
mClk3, sequence (O35492 whole entry): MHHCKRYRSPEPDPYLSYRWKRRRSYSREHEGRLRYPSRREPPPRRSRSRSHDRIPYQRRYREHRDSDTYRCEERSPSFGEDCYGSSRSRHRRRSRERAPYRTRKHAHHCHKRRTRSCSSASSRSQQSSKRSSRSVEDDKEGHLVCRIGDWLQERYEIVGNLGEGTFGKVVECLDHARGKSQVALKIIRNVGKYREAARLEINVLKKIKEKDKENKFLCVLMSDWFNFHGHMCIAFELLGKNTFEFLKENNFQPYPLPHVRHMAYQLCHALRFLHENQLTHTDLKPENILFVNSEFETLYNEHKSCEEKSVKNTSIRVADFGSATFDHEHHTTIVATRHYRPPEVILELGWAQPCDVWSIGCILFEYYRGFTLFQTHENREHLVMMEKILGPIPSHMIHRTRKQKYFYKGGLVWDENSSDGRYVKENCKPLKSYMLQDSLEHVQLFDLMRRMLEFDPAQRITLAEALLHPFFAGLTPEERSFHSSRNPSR

SRPK1 = SRPK1 (Homo sapiens, UniProt Q96SB4); details: at concentrations up to 1 μM; cited from earlier work
SRPK1, sequence (Q96SB4 whole entry, species assumed): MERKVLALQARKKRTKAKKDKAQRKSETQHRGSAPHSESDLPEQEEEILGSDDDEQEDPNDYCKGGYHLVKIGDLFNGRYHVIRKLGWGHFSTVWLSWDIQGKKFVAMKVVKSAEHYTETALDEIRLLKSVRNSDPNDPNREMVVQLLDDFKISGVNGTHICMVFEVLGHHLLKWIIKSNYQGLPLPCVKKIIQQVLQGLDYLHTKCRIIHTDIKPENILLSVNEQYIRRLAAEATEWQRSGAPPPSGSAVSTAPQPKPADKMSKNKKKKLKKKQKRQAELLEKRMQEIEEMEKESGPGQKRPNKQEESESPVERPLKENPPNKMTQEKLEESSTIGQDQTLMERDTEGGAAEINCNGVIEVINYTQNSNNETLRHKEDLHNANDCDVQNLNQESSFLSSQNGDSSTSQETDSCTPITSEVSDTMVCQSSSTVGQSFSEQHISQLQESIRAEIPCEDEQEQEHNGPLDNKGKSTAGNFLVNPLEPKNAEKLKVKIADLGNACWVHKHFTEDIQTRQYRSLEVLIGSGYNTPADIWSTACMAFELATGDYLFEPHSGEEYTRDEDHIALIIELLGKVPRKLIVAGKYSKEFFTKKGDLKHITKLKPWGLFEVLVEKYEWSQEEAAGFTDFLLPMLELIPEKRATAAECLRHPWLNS

SRPK2 = SRPK2 (Homo sapiens, UniProt P78362); details: at concentrations up to 1 μM; cited from earlier work
SRPK2, sequence (P78362 whole entry, species assumed): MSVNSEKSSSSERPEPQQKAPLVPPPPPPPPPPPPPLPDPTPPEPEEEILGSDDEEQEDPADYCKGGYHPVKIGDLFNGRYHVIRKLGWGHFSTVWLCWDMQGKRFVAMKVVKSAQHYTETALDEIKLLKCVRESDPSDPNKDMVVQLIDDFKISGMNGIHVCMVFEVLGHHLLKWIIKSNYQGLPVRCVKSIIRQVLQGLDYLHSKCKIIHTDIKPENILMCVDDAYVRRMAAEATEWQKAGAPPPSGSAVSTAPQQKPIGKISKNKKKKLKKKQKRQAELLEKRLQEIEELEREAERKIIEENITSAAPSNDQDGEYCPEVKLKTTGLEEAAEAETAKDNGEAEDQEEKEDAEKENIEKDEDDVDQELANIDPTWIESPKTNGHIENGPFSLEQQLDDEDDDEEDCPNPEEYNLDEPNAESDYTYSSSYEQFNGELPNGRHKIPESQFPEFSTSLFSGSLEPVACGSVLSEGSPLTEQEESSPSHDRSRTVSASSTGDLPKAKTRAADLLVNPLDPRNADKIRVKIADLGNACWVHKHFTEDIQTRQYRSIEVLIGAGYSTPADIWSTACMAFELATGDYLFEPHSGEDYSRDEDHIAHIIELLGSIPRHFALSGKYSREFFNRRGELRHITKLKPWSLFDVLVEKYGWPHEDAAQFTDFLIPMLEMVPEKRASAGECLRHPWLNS

PKA = details: at concentrations up to 1 μM; cited from earlier work
PKC = details: at concentrations up to 1 μM; cited from earlier work

Molecule: heparin
signal-dependent TF pre-mRNA splicing (TF pre-mRNA [1]): do not block
impact on TF pre-mRNA splicing (TF pre-mRNA [1]): do not appear to have a significant impact
IL-1β pre-mRNA splicing (IL-1β pre-mRNA): do not block

Clk1-dependent SF2/ASF phosphorylation (Clk1): suppressed
Molecule: CCN1/C(=C/C(C)=O)Sc2ccc(OC)cc21 [Tg003, (Z)-1-(3-Ethyl-5-methoxy-2,3-dihydrobenzothiazol-2-ylidene)propan-2-one]
processing of TF pre-mRNA (TF pre-mRNA [2]): prevented
expression of TF protein (TF protein): blocked
TF-dependent procoagulant activity (activated platelets): significantly (P<0.05) reduced
onset of plasma clot formation (human plasma): delayed
other platelet functional responses (adherence and spreading, actin polymerization, tubulin organization, Clk1 redistribution) (platelets): no effect
IC50 (mClk3): > 10 µM
effect on activity of SRPK1 (SRPK1): does not affect
effect on activity of SRPK2 (SRPK2): does not affect
effect on activity of PKA (PKA): does not affect
effect on activity of PKC (PKC): does not affect

Molecule: CC(=O)Oc1ccccc1C(=O)O [aspirin]
signal-dependent TF pre-mRNA splicing (TF pre-mRNA [1]): do not block
impact on TF pre-mRNA splicing (TF pre-mRNA [1]): do not appear to have a significant impact
IL-1β pre-mRNA splicing (IL-1β pre-mRNA): do not block

Molecule: COc1ccc(C[C@H](N)C(=O)N[C@H]2[C@@H](O)[C@H](n3cnc4c(N(C)C)ncnc43)O[C@@H]2CO)cc1 [Puromycin]
TF-dependent procoagulant activity (activated platelets): significantly (P<0.05) reduced

— patent publication US20090042869A1, “SIGNAL-DEPENDENT SPLICING OF TISSUE FACTOR PRE-mRNA IN [sequence] CELLS” (UNIVERSITY OF UTAH RESEARCH FOUNDATION, priority 2007, published 2009)
